Laboratory results: patent publication US9668481B2, “Triazole derivatives” (priority 2013, dated 2017)
Where two headings read alike, the source gives them in different places. Marks after values point to notes of the source that are not given here.

Experiments:
[1] = system: Sphaerotheca fuliginea; assay: In vivo preventive test on Sphaerotheca fuliginea (powdery mildew on cucurbits); conditions: gherkin plants, preventive spray, evaluated 15 days after inoculation
Experimental: (§1) The young plants of gherkin are treated by spraying the active ingredient prepared as described above. Control plants are treated only with an aqueous solution of acetone/Dimethyl sulfoxide/Tween®. After 24 hours, the plants are contaminated by spraying the leaves with an aqueous suspension of Sphaerotheca fuliginea spores.

[2] = system: Uromyces appendiculatus; assay: In vivo preventive test on Uromyces appendiculatus (bean rust); conditions: bean plants, preventive spray, evaluated 11 days after inoculation
Experimental: as §1, with “bean” for “gherkin”, “Uromyces appendiculatus” for “Sphaerotheca fuliginea”

[3] = system: Botrytis cinerea; assay: In vivo preventive test on Botrytis cinerea (grey mould); conditions: 100 ppm of active ingredient; gherkin plants, preventive spray; evaluated 4 to 5 days after inoculation
Experimental: as §1, with “Botrytis cinerea” for “Sphaerotheca fuliginea”, “spores. The contaminated gherkin plants are incubated for 4 to 5 days at 17° C. and at 90% relative humidity.” for “spores.”

[4] = system: Puccinia recondita; assay: In vivo preventive test on Puccinia recondita (brown rust on wheat); conditions: 500 ppm of active ingredient; wheat plants, preventive spray; evaluated 11 days after inoculation
Experimental: as §1, with “wheat” for “gherkin”, “Puccinia recondita” for “Sphaerotheca fuliginea”

[5] = system: Pyrenophora teres; assay: In vivo preventive test on Pyrenophora teres (net blotch on barley); conditions: 500 ppm of active ingredient; barley plants, preventive spray; evaluated 14 days after inoculation
Experimental: as §1, with “barley” for “gherkin”, “Pyrenophora teres” for “Sphaerotheca fuliginea”

[6] = system: Septoria tritici; assay: In vivo preventive test on Septoria tritici (leaf spot on wheat); conditions: 500 ppm of active ingredient; wheat plants, preventive spray; evaluated 24 days after inoculation
Experimental: as §1, with “wheat” for “gherkin”, “Septoria tritici” for “Sphaerotheca fuliginea”

[7] = method [a]: LC-MS at pH 2.7, 0.1% formic acid in water / acetonitrile gradient
[8] = method [b]: LC-MS at pH 7.8, 0.001 molar ammonium hydrogen carbonate in water / acetonitrile gradient

SMILES	LogP (pH 2.7)	LogP [7]	other results
CC(C)(C)C(O)(Cc1cnc2ccccc2c1)Cn1cncn1 (centres unmarked) [Example I-1]	1.18^[a]		
CC(C)(C)C(O)(Cc1ccc(Cl)nc1)Cn1cncn1 (centres unmarked) [Example I-2]	1.98^[b]; 1.98^[a]		Eff. % ([1]; 500 ppm of active ingredient): 98%; Eff. % ([2]; 500 ppm of active ingredient): 77%; LogP (pH 7.8): 1.98^[b]; 1.98^[a]
CC(C)(C)C(O)(Cc1ccc2ccccc2n1)Cn1cncn1 (centres unmarked) [Example I-8]		1.51^[a]	Eff. % ([1]; 100 ppm of active ingredient): 79%
CC(C)(C)C(O)(Cc1cc(Cl)nc(Cl)c1)Cn1cncn1 (centres unmarked) [Example I-9]	2.64^[a]		Eff. % ([1]; 100 ppm of active ingredient): 97%
CC(C)(C)C(O)(Cc1ccnc2ccccc12)Cn1cncn1 (centres unmarked) [Example I-10]	1.17^[a]		Eff. % ([1]; 100 ppm of active ingredient): 97%; Eff. % ([2]; 100 ppm of active ingredient): 85%
CC(C)(C)C(O)(Cc1cc(Cl)cc(Cl)n1)Cn1cncn1 (centres unmarked) [Example I-11]	2.86^[a]		
CC(C)(C)C(O)(Cc1ccc(Cl)c(Cl)n1)Cn1cncn1 (centres unmarked) [Example I-12]	2.78^[a]		
CC(C)(C)C(O)(Cc1cccc(Cl)n1)Cn1cncn1 (centres unmarked) [Example I-13]	2.30^[a]		
CCC(C)(C)C(O)(Cc1ccnc(Cl)c1)Cn1cncn1 (centres unmarked) [Example I-14]	2.27^[a]		Eff. % [3]: 87%; Eff. % ([1]; 100 ppm of active ingredient): 100%
CC(C)(C)C(O)(Cc1ccnc(Cl)c1)Cn1cncn1 (centres unmarked) [Example I-15]	1.93^[a]		Eff. % ([1]; 100 ppm of active ingredient): 100%; Eff. % ([2]; 100 ppm of active ingredient): 91%
CC(C)(C)C(O)(Cc1cc(Cl)ncc1F)Cn1cncn1 (centres unmarked) [Example I-16]	2.16^[a]		Eff. % ([1]; 100 ppm of active ingredient): 100%; Eff. % ([2]; 100 ppm of active ingredient): 84%
CC(C)(C)C(O)(Cc1cncc(Cl)n1)Cn1cncn1 (centres unmarked) [Example I-17]	1.89^[a]		
CC(C)(C)C(O)(Cc1nccnc1Cl)Cn1cncn1 (centres unmarked) [Example I-18]	2.01^[a]		
Cc1ncc(CC(O)(Cn2cncn2)C(C)(C)C)nc1Cl (centres unmarked) [Example I-19]	2.10^[a]		
Cc1cnc(CC(O)(Cn2cncn2)C(C)(C)C)c(Cl)n1 (centres unmarked) [Example I-20]	2.21^[a]		
CC(C)(C)C(O)(Cc1cnccn1)Cn1cncn1 (centres unmarked) [Example I-21]	1.39^[a]		
CC(C)(C)C(O)(Cc1cc(Cl)ccn1)Cn1cncn1 (centres unmarked) [Example I-22]	1.87^[a]		
Cc1cccc(CC(O)(Cn2cncn2)C(C)(C)C)n1 (centres unmarked) [Example I-23]	0.63^[a]		
CCOC(=O)OC(Cc1cccnc1Cl)(Cn1cncn1)C(C)(C)C (centres unmarked) [Example I-24]	2.67		Eff. % [4]: 86%; Eff. % [5]: 75%; Eff. % [6]: 100%; Eff. % ([1]; 500 ppm of active ingredient): 100%; Eff. % ([2]; 500 ppm of active ingredient): 97%; LogP (pH 7.8): 2.56
CC(C)(C)C(O)(Cc1cncc(Oc2ccc(Cl)cc2)n1)Cn1cncn1 (centres unmarked) [Example I-25]	2.98^[a]		Eff. % [4]: 71%
COC(C)(C)C(O)(Cc1ccncc1Cl)Cn1cncn1 (centres unmarked) [Example I-26]	1.48^[a]		Eff. % [4]: 89%; Eff. % [5]: 71%; Eff. % [6]: 97%; Eff. % ([1]; 500 ppm of active ingredient): 100%; Eff. % ([2]; 500 ppm of active ingredient): 100%
CC(C)(C)C(O)(Cc1c(Cl)cncc1Cl)Cn1cncn1 (centres unmarked) [Example I-28]	2.34^[a]		
CC(C)CCC(O)(Cc1ccncc1Cl)Cn1cncn1 (centres unmarked) [Example I-31]	2.00^[a]		Eff. % [4]: 89%; Eff. % [6]: 100%; Eff. % ([1]; 500 ppm of active ingredient): 100%; Eff. % ([2]; 500 ppm of active ingredient): 96%
CCOC(C)(C)C(O)(Cc1ccncc1Cl)Cn1cncn1 (centres unmarked) [Example I-32]	1.90		Eff. % [4]: 83%; Eff. % ([1]; 500 ppm of active ingredient): 98%; Eff. % ([2]; 500 ppm of active ingredient): 99%; LogP (pH 7.8): 2.04
CC(C)(C)C(O)(Cc1nc(Cl)ccc1Cl)Cn1cncn1 (centres unmarked) [Example I-33]	2.82^[a]		
CC(C)(C)C(=O)Cc1ncc(Cl)cc1Cl [Example V-1]		3.33^[a]	

SMILES	LogP (pH 2.7)	LogP [7]	other results
CC(C)(C)C(=O)Cc1cnc2ccccc2c1 [Example V-2]		1.60^[a]	
CC(C)(C)C(=O)Cc1ccc(Cl)nc1 [Example V-3]		2.47^[a]	
CCC(C)(CC)C(=O)Cc1ccncc1Cl [Example V-5]		3.04^[a]	
CC(C)C(C)(C)C(=O)Cc1ccncc1Cl [Example V-6]		3.00^[a]	
CC(C)(C)C(=O)Cc1cccnc1 [Example V-7]		0.41	LogP [8]: 1.71
CC(C)(C)C(=O)Cc1ccncc1 [Example V-8]		0.35	LogP [8]: 1.75
CC(C)(C)C1(Cc2ncc(Cl)cc2Cl)CO1 (centres unmarked) [XII-1]		4.06^[a]	
CC(C)(C)C1(Cc2cnc3ccccc3c2)CO1 (centres unmarked) [XII-2]		1.86^[a]	
CC(C)(C)C1(Cc2ccncc2F)CO1 (centres unmarked) [XII-7]		2.31^[a]	
CCC(C)(C)C1(Cc2ccncc2F)CO1 (centres unmarked) [XII-8]		2.76^[a]	
CC(C)C(C)(C)C1(Cc2ccncc2F)CO1 (centres unmarked) [XII-9]		3.19^[a]	
CCC(C)(C)C1(Cc2ccnc(Cl)c2)CO1 (centres unmarked) [XII-10]		3.51^[a]	
CC(C)C(C)(C)C1(Cc2ccnc(Cl)c2)CO1 (centres unmarked) [XII-11]		3.94^[a]	
CC(C)(C)C1(Cc2ccnc(Cl)c2)CO1 (centres unmarked) [XII-12]		3.06^[a]	
CC(C)C(C)(C)C1(Cc2cc(Cl)ncc2F)CO1 (centres unmarked) [XII-13]		4.34^[a]	
CCC(C)(C)C1(Cc2cc(Cl)ncc2F)CO1 (centres unmarked) [XII-14]		3.89^[a]	
CC(C)(C)C1(Cc2cc(Cl)ncc2F)CO1 (centres unmarked) [XII-15]		3.42^[a]	
CC(C)C(C)(C)C1(Cc2ccncc2Cl)CO1 (centres unmarked) [XII-16]		3.75^[a]	
CCC(C)(C)C1(Cc2ccncc2Cl)CO1 (centres unmarked) [XII-17]		3.33^[a]	
CC(C)(C)C1(Cc2cc(F)ncc2Cl)CO1 (centres unmarked) [XII-18]		3.65^[a]	
CCC(C)(C)C1(Cc2cc(F)ncc2Cl)CO1 (centres unmarked) [XII-19]		4.17^[a]	
CC(C)(C)C1(Cc2ccnc(Cl)c2F)CO1 (centres unmarked) [XII-20]		3.37^[a]	
CC(C)(C)C1(Cc2c(Cl)cncc2Cl)CO1 (centres unmarked) [XII-21]		3.89^[a]	
CCC(C)(C)C1(Cc2c(Cl)cncc2Cl)CO1 (centres unmarked) [XII-22]		4.41^[a]	
CCCC(C)(C)C1(Cc2ccncc2Cl)CO1 (centres unmarked) [XII-23]		2.03^[a]	
